Consider 38 compounds from PMC8196580, “Identification of Kaurane-Type Diterpenes as Inhibitors of Leishmania Pteridine Reductase I” (Molecules, 2021).

In test [1] the test system is L. major. Further details: method as in ChEMBL; call rule not given here. The settings on record: ref ChEMBL, cited from earlier work.
Test [2] concerns L. major. The experiment in a line: ChEMBL dataset of pIC50 values against L. major used for the RF model (Table S1). The class given is cell-based, Leishmania major. The source says:
From the ChEMBL database (https://www.ebi.ac.uk/chembl/, accessed on 10 January 2021), we selected a diverse set of 1085 structures that were initially classified according to their predicted activity against L. major.
Excluding these structures minimized the differences in activity values resulting from errors and differences in experimental protocols. […] Standardizer software [JChem, version 16.11.28 (2016), calculation module developed by ChemAxon, https://www.chemaxon.com/, accessed on 20 January 2021] was used to canonize all simplified molecular-input line-entry system (SMILES) codes. After duplicate structures were removed, those with higher pIC50 values were eliminated, facilitating the generation of more restrictive models.

[3] abbreviates: ChemBL structures with pIC50 values used for Random forest model construction, L. major.
The mark [4] stands for this setting: Active/Inactive class assigned to the ChEMBL pIC50 value for Random forest model construction, ref ChEMBL.
[5] abbreviates: ChemBL structures with pIC50 values used for Random forest model construction (Table S1).
[6] abbreviates: Active/Inactive class assigned to ChemBL structures for Random forest model construction (Table S1).

Structures are written as SMILES. Read-outs that look alike come from different tables or passages of the source.

As for `O=[N+]([O-])c1ccc(-c2nnc(N3CCOCC3)s2)s1` [CHEMBL195645], the “pIC50 Value” in the test on L. major [1] (setting [3]) was 4.97. Besides, the Outcome result with L. major [2] (setting [4]) is listed as “Inactive”.

As for `O=[N+]([O-])c1ccc(-c2nnc(N3CCNCC3)s2)o1` [CHEMBL195646], the “pIC50 Value” in the test with L. major [1] (setting [3]) is recorded as 5.05. In the test on L. major [2] (setting [4]), the Outcome result was “Active”.

For the compound `c1csc(-c2nc3ccccc3[nH]2)c1` [CHEMBL201221], the “pIC50 Value” in the test on L. major [1] (setting [5]) is 5.51. Besides, the Outcome entry in the test with L. major [2] (setting [6]) is on record as “Active”.

Regarding `O=[N+]([O-])c1ccccc1-c1nc2ccccc2[nH]1` [CHEMBL209918], the “pIC50 Value” in the test on L. major [1] (setting [5]) was 5.54. In addition, the Outcome entry with L. major [2] (setting [6]) is reported as “Active”.

For `COc1c2c(cc(O)c1-c1c(C)cc3cccc(OC)c3c1O)C[C@H](C)N=C2C` [CHEMBL221884], the “pIC50 Value” in the test with L. major [1] (setting [3]) is 4.48. For the same compound, the Outcome entry in the test on L. major [2] (setting [4]) is listed as “Inactive”.

For the compound `COc1cc(C)c(-c2ccc3cc(C)nc(C)c3c2O)c2cccc(O)c12` [CHEMBL222221], in the test on L. major [1] (setting [3]), the “pIC50 Value” is listed as 4.49. The Outcome entry with L. major [2] (setting [4]) is reported as “Inactive”.

For the compound `Cc1cc2ccc(-c3c(C)cc(O)c4c(O)cccc34)c(O)c2c(C)n1` [CHEMBL222338], in the test on L. major [1] (setting [3]), the “pIC50 Value” is 4.00. Also, in the test on L. major [2] (setting [4]), the Outcome result was “Inactive”.

Turning to `COc1cc2c(c(OC)c1)C(C)=[N+](c1ccc(OC)c3c(OC)cc(C)cc13)[C@@H](C)C2.O=C([O-])C(F)(F)F` [CHEMBL222358], the “pIC50 Value” in the test with L. major [1] (setting [5]) is given as 5.31. Also, the Outcome entry in the test on L. major [2] (setting [6]) was “Active”.

Turning to `COc1cc2c(c(OC)c1-c1c(C)cc3cccc(OC)c3c1O)C(C)=N[C@@H](C)C2` [CHEMBL222436], in the test on L. major [1] (setting [3]), the “pIC50 Value” is recorded as 4.00. The Outcome entry in the test on L. major [2] (setting [4]) is reported as “Inactive”.

In the case of `COc1cc(CO)c(-c2ccc3c(c2O)[C@@H](C)N[C@H](C)C3)c2cccc(O)c12` [CHEMBL222805], the “pIC50 Value” in the test with L. major [1] (setting [3]) is given as 4.00. For the same compound, in the test with L. major [2] (setting [4]), the Outcome result is listed as “Inactive”.

Turning to `COc1ccc(-c2ccc3cc(C)nc(C)c3c2O)c2cc(C)cc(OC)c12` [CHEMBL224952], in the test with L. major [1] (setting [3]), the “pIC50 Value” was 4.00. Further, in the test on L. major [2] (setting [4]), the Outcome entry is “Inactive”.

For the compound `CCOC(=O)C1=C(C)NC(=S)NC1c1cccc(O)c1` (stereo not shown) [CHEMBL236789], the “pIC50 Value” with L. major [1] (setting [5]) is given as 5.65. The Outcome result in the test on L. major [2] (setting [6]) was “Active”.

Regarding `CC(=O)CCCCCCCCCCCC[C@H]1CC[C@@H](O)[C@@H](C)N1` [CHEMBL249464], the “pIC50 Value” in the test on L. major [1] (setting [3]) is 4.12. Also, in the test on L. major [2] (setting [4]), the Outcome result was “Inactive”.

As to `COC(=O)C1=C(C)NC(C)=C(C(=O)OC(C)(C)CN(C)CCC(c2ccccc2)c2ccccc2)C1c1cccc([N+](=O)[O-])c1` (stereo not shown) [CHEMBL250270], the “pIC50 Value” with L. major [1] (setting [3]) was 4.94. The Outcome result in the test with L. major [2] (setting [4]) is “Inactive”.

As for `C=CCOc1ccc(C(=O)/C=C/c2ccc(OC)cc2OC)cc1` [CHEMBL253672], in the test with L. major [1] (setting [5]), the “pIC50 Value” is 5.40. Besides, in the test on L. major [2] (setting [6]), the Outcome result is “Active”.

Regarding `CC1=CCC[C@@]2(C)CC3=C(C[C@@H]12)C(=O)C=CC3=O` [CHEMBL255103], in the test with L. major [1] (setting [3]), the “pIC50 Value” is on record as 4.77. Further, the Outcome entry in the test with L. major [2] (setting [4]) is recorded as “Inactive”.

With `CC1=C2C(=O)c3c(O)ccc(O)c3CC2(C)CCC1=O` (stereo not shown) [CHEMBL255104], in the test on L. major [1] (setting [3]), the “pIC50 Value” is given as 3.52. In addition, in the test with L. major [2] (setting [4]), the Outcome result is “Inactive”.

With `CC1(O)CCCC2(C)Cc3c(O)ccc(O)c3CC12` (stereo not shown) [CHEMBL255315], the “pIC50 Value” with L. major [1] (setting [3]) was 4.99. Also, in the test on L. major [2] (setting [4]), the Outcome result is “Inactive”.

For `C/C(C=O)=C\CCC(C)(O)/C=C\c1cc(O)ccc1O` (stereo not shown) [CHEMBL255316], in the test with L. major [1] (setting [3]), the “pIC50 Value” is 4.04. Besides, in the test on L. major [2] (setting [4]), the Outcome result is recorded as “Inactive”.

Regarding `CC1=C2C(=O)c3c(OC(=O)c4ccc(Br)cc4)ccc(OC(=O)c4ccc(Br)cc4)c3CC2(C)CCC1=O` (stereo not shown) [CHEMBL255868], the “pIC50 Value” in the test on L. major [1] (setting [3]) was 4.43. Further, the Outcome entry with L. major [2] (setting [4]) is reported as “Inactive”.

As to `CC(=O)Oc1ccc(OC(C)=O)c2c1CC1(C)CCC(=O)C(C)=C1C2=O` (stereo not shown) [CHEMBL255869], in the test on L. major [1] (setting [3]), the “pIC50 Value” is recorded as 3.65. Also, the Outcome result with L. major [2] (setting [4]) is “Inactive”.

Turning to `C=C[C@@]1(C)CC2=C(C[C@H]1C(=C)C)C(O)C=CC2O` (stereo partly shown) [CHEMBL257133], the “pIC50 Value” with L. major [1] (setting [3]) is given as 4.74. For the same compound, the Outcome entry in the test with L. major [2] (setting [4]) is reported as “Inactive”.

For `C/C(C=O)=C\CC/C(C)=C/Cc1cc(O)ccc1O` [CHEMBL257343], the “pIC50 Value” with L. major [1] (setting [3]) is 4.57. The Outcome entry in the test on L. major [2] (setting [4]) is reported as “Inactive”.

In the case of `C[C@@H]1[C@H](O)[C@@H](C)/C=C/C=C/C=C/C=C/C=C/C=C/C=C/[C@H](O[C@@H]2O[C@H](C)[C@@H](O)[C@H](N)[C@@H]2O)C[C@@H]2O[C@](O)(C[C@@H](O)C[C@@H](O)[C@H](O)CC[C@@H](O)C[C@@H](O)CC(=O)O[C@H]1C)C[C@H](O)[C@H]2C(=O)O` [CHEMBL267345], the “pIC50 Value” with L. major [1] (setting [3]) is listed as 3.27. The Outcome entry in the test with L. major [2] (setting [4]) is recorded as “Inactive”.

For the compound `C[C@@H]1CC[C@H]2[C@@H](C)C(=O)O[C@@H]3O[C@@]4(C)CC[C@@H]1[C@]32OO4` [CHEMBL269671], the “pIC50 Value” in the test on L. major [1] (setting [5]) is reported as 6.12. Also, the Outcome entry with L. major [2] (setting [6]) was “Active”.

For the compound `Nc1ccc(Nc2c3ccccc3nc3ccccc23)cc1` [CHEMBL289352], the “pIC50 Value” in the test with L. major [1] (setting [5]) is recorded as 5.68. Moreover, the Outcome entry in the test on L. major [2] (setting [6]) is given as “Active”.

With `O=C(CCl)N1c2ccccc2Sc2ccc(Cl)cc21` [CHEMBL290253], in the test on L. major [1] (setting [3]), the “pIC50 Value” is on record as 4.98. Further, the Outcome result with L. major [2] (setting [4]) is recorded as “Inactive”.

On to `CN(C)Cc1ccc(Nc2c3ccccc3nc3ccccc23)cc1` [CHEMBL290441], for which the “pIC50 Value” in the test with L. major [1] (setting [5]) is 6.00. Besides, the Outcome entry in the test with L. major [2] (setting [6]) is “Active”.

For `CCCCCCNc1ccc(Nc2c3ccccc3nc3ccccc23)cc1` [CHEMBL299581], in the test with L. major [1] (setting [5]), the “pIC50 Value” is 6.26. In the test on L. major [2] (setting [6]), the Outcome result is listed as “Active”.

As to `CCCCN(CCCC)c1ccc(Nc2c3ccccc3nc3ccccc23)cc1` [CHEMBL312941], the “pIC50 Value” in the test on L. major [1] (setting [5]) is 6.46. Moreover, in the test on L. major [2] (setting [6]), the Outcome entry is given as “Active”.

Turning to `CCCCCCN(C)c1ccc(Nc2c3ccc(Cl)cc3nc3ccc(OC)cc23)cc1` [CHEMBL315133], the “pIC50 Value” in the test on L. major [1] (setting [5]) is 5.74. For the same compound, the Outcome result in the test with L. major [2] (setting [6]) was “Active”.

With `CCN(CC)c1ccc(Nc2c3ccccc3nc3ccccc23)cc1` [CHEMBL315530], in the test on L. major [1] (setting [5]), the “pIC50 Value” was 6.40. Also, the Outcome result in the test with L. major [2] (setting [6]) is recorded as “Active”.

Turning to `CCCCCCCc1ccc(Nc2c3ccccc3nc3ccccc23)cc1` [CHEMBL316058], the “pIC50 Value” in the test with L. major [1] (setting [5]) is reported as 6.10. In addition, the Outcome entry in the test on L. major [2] (setting [6]) is “Active”.

Consider `O=[N+]([O-])c1ccc2ncnc(Nc3cccc(Br)c3)c2c1` [CHEMBL329161], for which, in the test with L. major [1] (setting [3]), the “pIC50 Value” is reported as 5.04. Also, the Outcome entry in the test on L. major [2] (setting [4]) was “Active”.

For the compound `CN(C)c1ccc(Nc2c3ccc(NC(=O)CCN4CCCC4)cc3nc3cc(NC(=O)CCN4CCCC4)ccc23)cc1` [CHEMBL336434], the “pIC50 Value” in the test on L. major [1] (setting [3]) is recorded as 4.90. The Outcome entry in the test with L. major [2] (setting [4]) is “Inactive”.

With `O=[N+]([O-])c1ccc(-c2nnc(N3CCOCC3)s2)o1` [CHEMBL365770], the “pIC50 Value” in the test with L. major [1] (setting [3]) is 5.28. In addition, the Outcome result in the test with L. major [2] (setting [4]) was “Active”.

For the compound `NC[C@@H]1O[C@H](O[C@H]2[C@@H](O)[C@H](O[C@@H]3[C@@H](O)[C@H](N)C[C@H](N)[C@H]3O[C@H]3O[C@H](CO)[C@@H](O)[C@H](O)[C@H]3N)O[C@@H]2CO)[C@H](N)[C@@H](O)[C@@H]1O` [CHEMBL370143], the “pIC50 Value” in the test with L. major [1] (setting [3]) is recorded as 4.00. Also, the Outcome entry in the test on L. major [2] (setting [4]) is “Inactive”.

As to `CN1CCN(c2nnc(-c3ccc([N+](=O)[O-])s3)s2)CC1` [CHEMBL371217], the “pIC50 Value” in the test on L. major [1] (setting [3]) is 3.99. Also, the Outcome result in the test with L. major [2] (setting [4]) is “Inactive”.
